Experimental data as given in patent US20250082654A1, “AZD3355 (LESOGABERAN) FOR TREATMENT AND PREVENTION OF NONALCOHOLIC STEATOHEPATITIS (NASH), LIVER FIBROSIS, AND OTHER LIVER CONDITIONS” (Icahn School of Medicine at Mount Sinai, priority 2018, published 2025).

Assay: NASH mouse model, body weight
Assay type: in vivo
Details: male and female NASH model mice, 12-week treatment
Procedure: The experimental protocol was reviewed and approved by the Institutional Animal Care and Use Committee (IACUC) at Icahn School of Medicine at Mount Sinai, NY. Male and Female C57BL/6J mice (age: 6 weeks; weight: 20-25 g) were purchased from Jackson Laboratories (Farmington, CT). Animals were housed in a 12 hours light—12 hours dark cycle in the animal facility at Icahn School of Medicine at Mount Sinai, NY and handled following guidelines for the care and use of laboratory animals. Male and female mice were maintained in separate cages.
Carbon tetrachloride (CC14) was purchased from Sigma-Aldrich, MO. CC14 was freshly dissolved in corn oil at final concentration of 5% before injection. […]
Western diet containing 21.2% fat (42% Kcal), 41% sucrose and 1.25% cholesterol by weight was purchased from Envigo, WI (Teklad Custom diet Cat #TD.120528). […] During change of food and water we have been measured the amount of food and water intake and the data was collected.
Four separate groups of mice were given either 0.5% methylcellulose (as Vehicle) or AZD3355 at 10 mg/kg (low dose) body weight of mice or 30 mg/kg (high dose) body weight of mice by twice daily (BID (5 days/week)) and OCA at 30 mg/kg body weight of mice by daily (QD (5 days/week)) through oral route for up to next 12 weeks (week 13 to week 24). […] All animals were closely monitored the health conditions and behavior.

NC[C@@H](F)C[PH](=O)O [AZD3355, [(2R)-3-amino-2-fluoropropyl] phosphinic acid]
body weight during treatment: stable
